The source of these data is US20060089318A1, “Inhibitors of adp-ribosyl transferases, cyclases, and hydrolases” (priority 2002, published 2006).

Where two headings read alike, the source gives them in different places.

Broadly, the Km is the substrate concentration at which the rate is half of its maximum.

For data set [1], the target named is T1, human CD38 (Homo sapiens, UniProt P28907).
T1 sequence (P28907 43-300 limits assumed): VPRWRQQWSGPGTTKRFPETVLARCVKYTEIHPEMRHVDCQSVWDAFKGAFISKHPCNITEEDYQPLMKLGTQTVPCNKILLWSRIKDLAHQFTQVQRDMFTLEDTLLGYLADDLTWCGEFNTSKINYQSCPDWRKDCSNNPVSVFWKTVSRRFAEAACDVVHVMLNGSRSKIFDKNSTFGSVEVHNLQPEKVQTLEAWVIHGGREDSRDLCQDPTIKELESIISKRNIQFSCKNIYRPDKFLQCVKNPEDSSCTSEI
The experiment in a line: Competitive and slow-onset inhibition of CD38-catalyzed conversion of NGD+ to cGDPR (295 nm absorbance). Set-up: The soluble domain of human CD38 catalyzes the conversion of NAD^+ to cyclic-ADP-ribose. The data set is classed as biochemical. The note with it: for Inhibition of CD38 conversion of NGD+ to cGDPR: even at millimolar concentrations of compound; for Ki: 19° C. Here is the method:
Determination of Ki and kon by competitive method. To 1 mL solutions of 50 mM potassium phosphate pH 7.2 and 100 μM NGD^+ containing, 50, 25, 12.5, and 6.25 and 0 μM inhibitor 1 was added 2 μL of 7 μM CD38. Reaction progress upon initiation by enzyme addition was monitored by measurement of […] absorbance. The initial slopes were used to determine the Ki value, and all points of the experiment were fit to the equation A(t)=vt+(b−v)(1−exp(−kt))/k+A0 where k is the observed rate constant, b is the initial rate, v is the final rate and A0 is the initial absorbance was used to evaluate kon.
Determination of Competitive Inhibition by Initial Rates: The inhibitors 1-3 were evaluated for inhibition of CD38 enzymatic activity using a spectrophotometric assay. CD38 catalyzes the conversion of NGD^+ to cyclic-GDP ribose (cGDPR, Scheme 4) and product formation can be monitored by 295 nm absorbance measurement. […] A similar reaction containing 40 μM NGD^+ at several concentrations of 2 was also performed (FIG. 3).
Slow Phase Inhibition. […] This slow phase was not due to substrate depletion and was attributable to a kinetic process leading to progressive inhibition of the enzyme. The “slow-onset” absorbance curves could be fit using the equation At=vit+(vi−vf)(1−exp(−kt))/k+A0 where At is absorbance, vi is initial velocity, vf is final velocity, t is time in s, k is the rate of the slow onset process and A0 is absorbance of the sample at initial time. These fits are shown by the solid lines in FIG. 2 and FIG. 3. The rate constant for the slow phase could be obtained from the average value of k determined from the separate fits. The value of k for 1 was determined to be 0.0042±0.001 s^−1 and the value of k for 2 was determined to be 0.0083±0.002 s^−1. The parameter k is defined as kon in Scheme 5. [drawing 22]
Calculation of Total Inhibition. […] This equation is valid for slow onset behavior inhibitors and also mechanistic based inactivators of enzymes where a slow recovery of the enzyme from chemical inactivation is present.

For data set [2], the target named is T2, CD38 (Homo sapiens, UniProt P28907).
T2 sequence (P28907 45-300 limits assumed): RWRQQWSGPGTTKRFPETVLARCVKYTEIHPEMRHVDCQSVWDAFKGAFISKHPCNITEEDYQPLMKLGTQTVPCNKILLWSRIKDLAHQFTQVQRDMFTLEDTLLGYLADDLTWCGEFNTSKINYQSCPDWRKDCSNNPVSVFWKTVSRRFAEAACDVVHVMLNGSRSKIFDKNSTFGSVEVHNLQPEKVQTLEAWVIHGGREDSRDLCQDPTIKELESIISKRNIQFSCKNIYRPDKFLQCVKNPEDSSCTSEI
To be noted: comparison values for substrates; read-out: Km of substrate for CD38; cited from earlier work.

In data set [3] the target is T1, human CD38. The experiment in a line: Radiochemical measurement of inhibitor binding (labeling of CD38 by [2'-3H] inhibitor, gel filtration and scintillation counting). The arrangement: The soluble domain of human CD38 catalyzes the conversion of NAD^+ to cyclic-ADP-ribose. The note with it: 25° C.; 9 μM inhibitor, 1.2 μM CD38 monomer. The protocol: Radiochemical measurement of inhibitor binding. […] Inhibitor at 9 μM with specific radioactivity of 866 cpm/nmol, was incubated with 1.2 μM CD38 (monomer) in 1 mL 50 mM potassium phosphate (pH 7.5). The reactions were started by enzyme addition and quenched by freezing with a dry ice/acetone bath at 30, 60 90, 120, 250, 500, and 1000 s. Cooled (0° C.) gel filtration columns were used to separate protein with cooled (0° C.) 10 mM potassium phosphate as eluant. The frozen fraction were quickly thawed, applied to these columns and fractions collected in 1 mL volumes over the course of several minutes. Scintillation fluid (9 mL) was then added to each 1 mL fraction and samples counted. […] The observed radioactivity was fit using the equation A(t)=A0(1−exp(−kt))+B. where A0 is activity at reaction completion, k is the observed pseudo-first order rate constant and B is the activity of the blank.
Titration of Enzyme with [2′-^3H]Inhibitor. CD38 inactivation was accomplished using a radiolabeled inhibitor to assess inhibitor interactions with the enzyme independent from inhibition of the catalytic activity. This method allows the determination of the stoichiometry of covalent labeling, and detects cooperativity at multiple sites. […] (FIG. 8) within reasonable agreement with the rate constant for inactivation in kinetic assays of inhibition (kon=0.0042 s^−1 at 19° C.). […]

Data set [4] addresses CD38. To be noted: literature values (Sauve et al., 2000; Muller-Steffner et al., 1992); cited from earlier work.
Data set [5] can be described thus: Solution hydrolysis (chemical stability). The data set is classed as physicochemical. An excerpt:
Without being bound to any particular mechanism, it is believed that the electron-contributing moiety on A stabilizes the compounds of the invention such that they are less susceptible to hydrolysis from the rest of the compound. For example, the compound β-1′-5-methyl-nicotinamide-2′-deoxyribose (established as an effective inhibitor of CD38 in Example 1) was compared with β-1′-nicotinamide-2′-deoxyribose in its ability to resist solution hydrolysis. […] This difference in chemical stability means that β-1′-nicotinamide-2′-deoxyribose is 50% depleted from solution in 2 hours, whereas β-1′-5-methyl-nicotinamide-2′-deoxyribose is not hydrolyzed by 50% until 12 hours. This improved chemical stability improves the value of the compound, since it is available for action for longer periods of time in biological systems due to resistance to hydrolytic breakdown.

Data set [6] has as its target T1, human CD38. The experiment in a line: Off-rate measurement: recovery of inhibited CD38 in excess NGD+. The class given is biochemical. Set-up: The soluble domain of human CD38 catalyzes the conversion of NAD^+ to cyclic-ADP-ribose. To be noted: 19° C. Here is the method:
Off-Rate Measurement. 500 nM CD38 in 50 mM potassium phosphate pH 7.2 was incubated with 15 μM inhibitor for 30 min at room temperature. 5 μL of the enzyme inhibitor solution was added to a cuvette containing 1 mL reaction of 50 mM potassium phosphate pH 7.5 containing 300 μM NGD^+ pre-chilled to 19° C. Production of […] was determined by monitoring […] absorbance. The absorbance was fit to the equation A(t)=vt+(b−v) (1−exp(−kt))k+A0 where A(t) is the absorbance, k is the rate constant of recovery, b is the initial rate, v is the final rate and A0 is the initial absorbance. A control lacking inhibitor but in all other respects identical was also run.
Recovery from Inhibition. […] The solution 295 nm absorbance is monitored spectrophotometrically to assay conversion of NGD^+ to cGDPR as a consequence of regain of CD38 catlytic activity. […] The absorbance curves with the same equation used for slow-onset: At=vit+(vi−vf)(1−exp(−kt))/k+A0 where At is absorbance, vi is initial velocity, vf is final velocity, t is time in s, k is the rate of the recovery rate constant and A0 is the absorbance of the sample at initial time. The rate constant for the recovery phase was obtained from the average value of k determined from the separate fits. The value of koff for 1 was determined to be 1.5×10^−5 s^−1 and for 2 was determined to be 2.5×10^−5 s^−1.

The target in data set [7] is T1, human CD38. The experiment in a line: CD38-catalyzed base-exchange reaction of 2 with nicotinamide to form 1 (HPLC). The data set is classed as biochemical. The arrangement: The soluble domain of human CD38 catalyzes the conversion of NAD^+ to cyclic-ADP-ribose. The protocol: Base-exchange reaction. […] These reactions were run separately in autosampler tubes held at 19° C. in a temperature regulated autosampler and assayed by multiinjection HPLC using 5 mM K2PO4H pH 5.0 and 2.5% MeOH as eluant. The quantity of 2 reacted and the quantity of 1 formed versus time was determined by integrations of the peaks for 1 and 2 with comparison to standards.

For data set [8], the target named is T1, human CD38. To be noted: read-out: Apparent Km for nicotinamide rescue of CD38 activity; CD38 preinhibited by 2.
Description: 10 mL CD38 (1 μM) in K2PO4H was incubated with 2 (10 μM) for 30 minutes at room temperature and subsequently placed on ice. […] To a two syringe Applied Photophysics spectrophotometer in fluorescence mode was added inhibited enzyme to one syringe and NGD^+ solution to the other. Fluorescence was used to monitor cGDPR formation and the total fluorescence curves fit using the activity recovery equation. F(t)=vt+(b−v)(1−exp(−kt))/k+F0 where k is the observed rate constant, b is the initial rate, v is the final rate and F0 is the initial absorbance.
A stopped flow, two syringe fitted spectrophotometer was used to perform the experiments. The fluorescence of cGDPR was measured as a function of time to generate curves that contain an exponential and a linear phase prior to substrate exhaustion. These curves were fit to the equation Ft=vft+(vi−vf)(1−exp(−kt))/k+F0 as previously defined.
Data set [9] concerns the target T2, CD38. To be noted: read-out: Apparent Km for nicotinamide rescue; CD38 inactivated by ara-F-NMN+; cited from earlier work.
The mark [10] stands for this setting: 10 mM potassium phosphate, pH 6.5, 25° C.
[11] abbreviates: 100 μM NGD+ for 1, 40 μM NGD+ for 2, 50 mM potassium phosphate pH 7.2, read-out: Ki (competitive inhibition, from initial rates).
Where [12] appears, read: calculated from the kinetic parameters, read-out: Ki(total) = (koff/kon)*Ki, effective dissociation constant.

Turning to `NC(=O)c1ccc[n+](C2CC(O)C(CO)O2)c1` (single isomer, unassigned) [α isomer of 1], in data set [1], the “Inhibition of CD38 conversion of NGD+ to cGDPR” value (from here on “Inhibition … to cGDPR”) was “did not inhibit”.

Consider `Cc1cc(C(N)=O)c[n+](C2CC(O)C(CO)O2)c1` (single isomer, unassigned) [α isomer of 2], for which the “Inhibition … to cGDPR” value in data set [1] is recorded as “did not inhibit”.

With `NC(=O)c1ccc[n+]([C@@H]2O[C@H](COP(=O)([O-])OP(=O)(O)OC[C@H]3O[C@@H](n4cnc5c(N)ncnc54)[C@H](O)[C@@H]3O)[C@@H](O)[C@H]2O)c1` [NAD^+, nicotinamide adenine dinucleotide], the Km in [2] was 15 µM.

As for `NC(=O)c1ccc[n+]([C@@H]2O[C@H](COP(=O)([O-])OP(=O)(O)OC[C@H]3O[C@@H](n4cnc5c(=O)[nH]c(N)nc54)[C@H](O)[C@@H]3O)[C@@H](O)[C@H]2O)c1` [NGD^+, nicotiramide guanine dinucleotide], the Km in data set [2] was 2.5 µM.

On to `NC(=O)c1ccc[n+]([C@@H]2O[C@H](COP(=O)(O)O)[C@@H](O)[C@H]2O)c1` [NMN^+], for which the Km in data set [2] is 150 µM.

For the compound `[3H]C1[C@H]([n+]2cccc(C(N)=O)c2)O[C@H](CO)[C@H]1O` (stereo partly shown) [[2-^3H]-1, [2′-^3H]Nicotinamide deoxyriboside], the “Rate constant of radiochemical labeling of CD38 (kchem)” value in data set [3] stood at 0.01 s⁻¹.

On to `NC(=O)c1ccc[n+]([C@@H]2O[C@H](COP(=O)([O-])OP(=O)(O)OC[C@H]3O[C@@H](n4cnc5c(N)ncnc54)[C@H](O)[C@@H]3O)[C@@H](O)[C@H]2F)c1` [ara-F-NAD^+], for which, in [4], the Ki is 169 nM.

For the compound `NC(=O)c1ccc[n+]([C@@H]2O[C@H](COP(=O)(O)O)C(O)C2F)c1` (stereo partly shown) [ara-F-NMN^+], the Ki in data set [4] was 61 nM.

In the case of `NC(=O)c1ccc[n+]([C@H]2C[C@H](O)[C@@H](CO)O2)c1` [inhibitor 1, β-nicotinamide-2′-deoxyriboside], the “Rate constant for solution hydrolysis” value in data set [5] (setting [10]) was 9.6e-05 s⁻¹. Further, the “Time to 50% depletion from solution by hydrolysis” value in data set [5] stood at 2 h. The Ki in data set [1] (setting [11]) is 1200 nM; in [1] (setting [12]), 4.5 nM. Moreover, in data set [6], the “koff (rate constant of recovery from inhibition)” value is about 2e-05 s⁻¹. Also, the “Rate constant of radiochemical labeling of CD38 (kchem)” value in [3] is 0.01 s⁻¹.

For the compound `Cc1cc(C(N)=O)c[n+]([C@H]2C[C@H](O)[C@@H](CO)O2)c1` [inhibitor 2, β-5-methyl-nicotinamide-2′-deoxyriboside], in data set [5] (setting [10]), the “Decrease in the rate of hydrolysis versus β-1′-nicotinamide-2′-deoxyribose (factor)” value was found to be 6 and the “Rate constant for solution hydrolysis” value is 1.5e-05 s⁻¹. The “Time to 50% depletion from solution by hydrolysis” value in data set [5] was 12 h. Also, the Ki in data set [1] (setting [11]) is 4000 ± 500 nM. The Ki in [1] (setting [12]) is 12.5 nM. The “koff (rate constant of recovery from inhibition)” value in data set [6] was about 2e-05 s⁻¹. Besides, the “kcat of base exchange (2 to 1)” value in data set [7] (75 μM 2, 1 μM CD38, nicotinamide 0-40 mM, 19° C.) stood at 0.007 s⁻¹.

Consider `OC[C@H]1O[C@@H]([n+]2ccccc2)C[C@@H]1O` [inhibitor 3, β-pyridyl-deoxyriboside], for which, in data set [1], the “Inhibition … to cGDPR” value is on record as “did not inhibit”.

As to `NC(=O)c1cccnc1` [nicotinamide], the Michaelis constant (Km) in data set [8] is 2400 µM; in data set [9], 17000 µM; in data set [7] (read-out: Km of nicotinamide for steady state base exchange, 75 μM 2, 1 μM CD38, 19° C.), 920 µM.
